Assay results reported in patent US20110190199A1, “Combination Therapy for Tuberculosis” (priority 2008, published 2011).
≈ marks a conversion by molar mass, not a printed value. Where “and” joins values, the source holds several entries; their conditions need not be identical. Identical values can stand only once. Like-named read-outs stand apart in the source and are kept apart here.

Assays:
[1] = system: Mycobacterium tuberculosis; conditions: cited from earlier work
[2] = system: Mycobacterium tuberculosis H37Rv; type: in vivo, mice
[3] = 600-625 mg by mouth twice daily; cited from earlier work
[4] = system: Mycobacterium tuberculosis H37Rv; test: MIC by agar dilution on Middlebrook 7H11 agar; type: cell-based; conditions: 672 h, 7H11 agar + 10% OADC, 28 days at 37°C, lowest concentration to inhibit at least 99% of bacterial growth
[5] = Single-dose and steady-state serum pharmacokinetics in the murine model; type: in vivo, mice
Method: To determine the single-dose and steady-state pharmacokinetic profiles of the compound of formula (I) and LZD in the murine model, a sub-study was nested in the above dose-ranging study using mice treated with the compound of formula (I) at 100 mg/kg once-daily or LZD at 130 mg/kg once- or twice-daily. Three mice per group were sacrificed at 0.5, 1, 2, 4, 8 and 24 hours after the first dose of treatment (D1) and at the aforementioned time points with the addition of a 9 hour time point (i.e., 1 hour after the second daily dose) on Day 24 (D24) of treatment. Mice were anesthetized with chloroform and exsanguinated by cardiac puncture. Whole blood was collected on ice and then centrifuged to obtain serum. Acetonitrile was added to the samples before storage in gasketed screwcap tubes at −20° C. D24 samples were collected and processed in the same manner and stored at −20° C. before being sent together with D1 samples to Pfizer (Groton, Conn.) for determination of drug concentrations. The supernatant was injected (10 μL injection volume) onto the LC (Shimadzu SCL-10A, Kyoto, Japan)-MS/MS (Sciex API 3000, Applied Biosystems Group, Foster City, Calif.) using a Hypersil C18 column (5 μm, 50×2.1 mm, Thermo Electron Corp, Waltham, Mass.) and a step gradient consisting of a mobile phase of A: water with 0.05% 5 mM ammonium formate and B: acetonitrile/water/5 mM ammonium formate (80:20:0.05%). The ionization was electrospray positive ion mode. Bioanalytical data were captured using Analyst (Version 1.4.1, Applied Biosystems Group, Foster City, Calif.). Pharmacokinetic calculations were based on mean serum concentrations and performed using the non-compartmental approach (linear trapezoidal rule for AUC calculation with the aid of Watson 7.2 Bioanalytical LIMS [Thermo Electron Corp, Waltham, Mass.)). […] Concentrations of 0 were used for kinetic calculations for all results below the lower limit of quantitation (5 ng/mL).

[6] = system: Mycobacterium tuberculosis H37Rv; test: Example 8C: additional dose ranging study (4 and 8 weeks); type: in vivo, mice; conditions: lung
Method: The protocol described above in Example 8A and 8B was carried out on an alternative occasion. The only substantive changes were the number of animals per group and the initial incubation period.
Testing continued for an additional 4 weeks with 60 of the mice from Test Group 2 immediately above. The mice either received U alone, at varying doses, or the combination of U and R. The following results were obtained.

[7] = system: Mycobacterium tuberculosis H37Rv; test: Example 8B: eight week dose ranging study (second phase after 4 weeks RHZU25); type: in vivo, mice; set-up: Lung CFU / CFU-U only: unit not given here; conditions: for effect of U monotherapy against persisting tubercle bacilli / log reduction with U monotherapy against persisting tubercle bacilli: 4 weeks after initial 4 weeks of RHZU25; for CFU-U only: lung
Method: Eighty of the mice from Group 4 (in Example 8A) that had been receiving 25 mg/kg of the compound of formula I (U) along with rifampin(R), isoniazid(H), and pyrazinamide(Z) were evaluated in the second phase of the study. They were assigned to one of the groups described below in Table 6 and the study was continued for an additional 4 weeks (i.e. 8 week results).
As described above, 5 animals served as the control and no further drugs were given. Five were given the combination of rifampin(R) and isoniazid (H), five given isoniazid (H) or rifampin(R) alone. […] Six of these groups were also dosed with rifampin (R). The rifampin and isoniazid was dosed in the same manner and in the same amount as in Example 8A.
At the conclusion of the eight (8) week experiment, all of the animals were sacrificed and CFU lung counts were obtained.

[8] = system: M. tuberculosis H37Rv; test: Example 9: compound of formula I added to first and second line anti-tuberculosis drugs (survival, lung CFU after 4 weeks); type: in vivo, mice; conditions: D0 8.36 ± 0.10
[9] = system: Mycobacterium tuberculosis H37Rv; test: Example 6: in vivo activity of the combination (lung CFU after 4 and 8 weeks); set-up: species or system mice
[10] = Mycobacterium tuberculosis, literature
[11] = labelled regimen PLUS compound of formula (I) 100 mg/kg/day, INH 25, RIF 10, PZA 150, MXF 100 mg/kg, Day 0 7.37 ± 0.12
[12] = regimen as labelled, INH 25, RIF 10, PZA 150, MXF 100, compound of formula (I) 100 mg/kg, Day 0 7.37 ± 0.12

SMILES: CC(=O)NC[C@H]1CN(c2ccc(N3CCOCC3)c(F)c2)C(=O)O1 [LZD, linezolid]
- MIC50 [1, 10]: 0.5 µg/mL (≈ 1.48 µM)
- MIC90 [1, 10]: 1 µg/mL (≈ 2.96 µM)
- MIC range [1, 10]: 0.125 to 1 µg/mL
- log kill (reduction in mean lung CFU count compared to the baseline value) ([2]; mouse, in vivo): 1.46 log10
- mean spleen weight ([2]; mouse, in vivo): 200 ± 47 mg and 102 ± 5 mg and 190 ± 52 mg
- Mean log10 CFU count (± SD) on Day 28 ([2]; mouse, in vivo, 25 mg/kg): 7.55 ± 0.24 log10 CFU
- Mean log10 CFU count (± SD) on Day 28 ([2]; mouse, in vivo, 50 mg/kg): 7.33 ± 0.11 log10 CFU
- Mean log10 CFU count (± SD) on Day 28 ([2]; mouse, in vivo, 100 mg/kg): 6.75 ± 0.14 log10 CFU
- Mean log10 CFU count (± SD) on Day 28 ([2]; mouse, in vivo, 260 mg/kg): 6.03 ± 0.12 log10 CFU
- steady state AUC observed in humans [3]: 215 to 294 µg·h/mL
- MIC [4]: 0.25 µg/mL
- Cmax higher than that obtained in humans ([5]; 100 mg/kg dose in the mouse, based on linear kinetics): approximately 3 times
- steady state AUC higher than anticipated steady state AUC in humans ([5]; mouse 130 mg/kg daily vs humans 600-625 mg twice daily): approximately 50%
- AUC(0-t) ([5]; mouse, serum, po, 130 mg/kg, serum, Day 1, LZD 130 mg/kg daily oral, read-out: AUC0-24): 164 µg·h/mL
- Cmax ([5]; mouse, serum, po, 130 mg/kg, serum, Day 1, LZD 130 mg/kg daily oral, read-out: Cmax): 64.9 µg/mL
- AUC(0-t) ([5]; mouse, serum, po, 130 mg/kg, serum, Day 24, LZD 130 mg/kg daily oral, read-out: AUC0-24 (steady state AUC)): 379 µg·h/mL
- Cmax ([5]; mouse, serum, po, 130 mg/kg, serum, Day 24, LZD 130 mg/kg daily oral, read-out: Cmax): 58.4 µg/mL

SMILES: CC(=O)NC[C@H]1CN(c2ccc(N3CCSCC3)c(F)c2)C(=O)O1 [compound of formula (I), (S)—N-[[3-[3-fluoro-4-(4-thiomorpholinyl)phenyl]-2-oxo-5-oxazolidinyl]methyl]acetamide]
- CFU Count 8 weeks ([6]; 4 weeks RHZU100 then 4 weeks with U 6.25 mg/kg (alone or with R)): 4.93 ± 0.32
- CFU Count 8 weeks ([6]; 4 weeks RHZU100 then 4 weeks with U 12.5 mg/kg (alone or with R)): 5.30 ± 0.08
- CFU Count 8 weeks ([6]; 4 weeks RHZU100 then 4 weeks with U 25 mg/kg (alone or with R)): 5.27 ± 0.20
- CFU Count 8 weeks ([6]; 4 weeks RHZU100 then 4 weeks with U 50 mg/kg (alone or with R)): 4.59 ± 0.28
- CFU Count 8 weeks ([6]; 4 weeks RHZU100 then 4 weeks with U 100 mg/kg (alone or with R)): 3.86 ± 0.53
- CFU Count 8 weeks ([6]; 4 weeks RHZU100 then 4 weeks with U 160 mg/kg (alone or with R)): 2.90 ± 0.32
- MIC90 against M. tuberculosis ([1]; stated in the pharmacokinetics section (Barbachyn et al.)): 0.25 µg/mL
- in vivo potency relative to LZD ([2]; 25 mg/kg as active as LZD 130 mg/kg, AUC about 3-fold lower at 100 mg/kg): 12 times
- log kill (reduction in mean lung CFU count compared to the baseline value) ([2]; 25 mg/kg, 28 days): 0.78 log10
- mean spleen weight ([2]; 25 mg/kg, after 28 days of treatment, pre-treatment 105±11 mg, untreated 237±16 mg): 113 ± 17 mg
- log kill (reduction in mean lung CFU count compared to the baseline value) ([2]; 50 mg/kg, 28 days): 2.21 log10
- Mean log10 CFU count (± SD) on Day 28 ([2]; lung, 25 mg/kg once daily, 5 days per week by gavage, Day 0 7.49 ± 0.11): 6.71 ± 0.28 log10 CFU
- Mean log10 CFU count (± SD) on Day 28 ([2]; lung, 25 mg/kg twice daily, Day 0 7.49 ± 0.11): 5.51 ± 0.14 log10 CFU
- Mean log10 CFU count (± SD) on Day 28 ([2]; lung, 50 mg/kg once daily, Day 0 7.49 ± 0.11, 50 mg/kg): 5.28
- Mean log10 CFU count (± SD) on Day 28 ([2]; lung, 50 mg/kg once daily, Day 0 7.49 ± 0.11, listed as Compound of Formula (I), 50 mg/kg): 5.28 ± 0.53 log10 CFU
- Mean log10 CFU count (± SD) on Day 28 ([2]; lung, 50 mg/kg twice daily, Day 0 7.49 ± 0.11): 4.89 ± 0.27 log10 CFU
- Mean log10 CFU count (± SD) on Day 28 ([2]; lung, 100 mg/kg once daily, Day 0 7.49 ± 0.11): 5.07 ± 0.14 log10 CFU
- effect of U monotherapy against persisting tubercle bacilli ([7]; 12.5 mg/kg): growth-inhibitory effect
- effect of U monotherapy against persisting tubercle bacilli ([7]; 25 mg/kg): bacteriostatic effect
- log reduction with U monotherapy against persisting tubercle bacilli ([7]; 50 mg/kg): > 0.5 log
- log reduction with U monotherapy against persisting tubercle bacilli ([7]; 100 mg/kg): > 1 log
- log reduction with U monotherapy against persisting tubercle bacilli ([7]; 160 mg/kg): ~2 log
- CFU-U only ([7]; 8 weeks: 4 weeks RHZU25 then 4 weeks U 12.5 mg/kg): 4.99 ± 0.19
- CFU-U only ([7]; 8 weeks: 4 weeks RHZU25 then 4 weeks U 25 mg/kg): 4.26 ± 0.24
- CFU-U only ([7]; 8 weeks: 4 weeks RHZU25 then 4 weeks U 50 mg/kg): 3.56 ± 0.15
- CFU-U only ([7]; 8 weeks: 4 weeks RHZU25 then 4 weeks U 50 mg/kg thrice weekly (3/7)): 4.21 ± 0.26
- CFU-U only ([7]; 8 weeks: 4 weeks RHZU25 then 4 weeks U 100 mg/kg): 2.88 ± 0.34
- CFU-U only ([7]; 8 weeks: 4 weeks RHZU25 then 4 weeks U 160 mg/kg): 2.42 ± 0.31
- MIC [4]: 0.25 µg/mL
- AUC0-24 ([5]; mouse, in vivo, po, 100 mg/kg): 8.74 µg·h/mL
- Cmax ([5]; mouse, in vivo, po, 100 mg/kg): 4.32 µg/mL
- AUC(0-t) ([5]; mouse, in vivo, po, 100 mg/kg, AUC0-24): 7.33 µg·h/mL
- Cmax ([5]; mouse, in vivo, po, 100 mg/kg, Cmax): 6.07 µg/mL
- Mean lung log10 CFU count (±) S.D. after 4 weeks of treatment with: Regimen + U 25 mg/kg ([8]; labelled drug PLUS U 25 mg/kg): 7.17 ± 0.23 log10 CFU
- Mean lung log10 CFU count (±) S.D. after 4 weeks of treatment with: Regimen + U 100 mg/kg ([8]; labelled drug PLUS U 100 mg/kg, lower limit of detection 3.40): 5.40 ± 0.10 log10 CFU
- Lung log10 CFU counts (±SD) after treatment with the indicated regimen plus the compound of formula (I) 100 mg/kg/day, Day 28 [9, 11]: 4.72 ± 0.17 log10 CFU
- Lung log10 CFU counts (±SD) after treatment with the indicated regimen plus the compound of formula (I) 100 mg/kg/day, Day 56 [9, 11]: 2.70 ± 0.29 log10 CFU
- reduction in lung CFU counts from baseline over the first 28 days ([9]; monotherapy, compound of formula (I) 100, INH 25, RIF 10 mg/kg): 2.65 log10
- Lung log10 CFU counts (±SD) after treatment with the indicated regimen, Day 28 [9, 12]: 4.72 log10 CFU
- Lung log10 CFU counts (±SD) after treatment with the indicated regimen, Day 56 [9, 12]: 2.70 log10 CFU
